Source: patent US6777229B1, “Plasmids from Corynebacterium glutamicum and use thereof” (Degussa AG, priority 1999, dated 2004)

How the values were obtained:
Experiment in all cases: Minimum inhibition concentration, NCCLS Approved Standard M7-A4 dilution test
Type in all cases: cell-based
[1] = system: Corynebacterium glutamicum LP-6; details: strain LP-6 (resistant test strain)
Source text: (§1) In order to identify antibiotic resistance genes on new plasmids, the strain to be investigated, in the present case Corynebacterium glutamicum LP-6, and a sensitive control strain, in the present case Corynebacterium glutamicum ATCC13032, are initially tested for resistance or sensitivity to various antibiotics and concentrations of antibiotics. […] Using the method of “Approved Standard M7-A4”, it is possible to determine inhibition concentrations and thus to ascertain the resistance of the investigated strain of bacteria.
(§2) In order to identify antibiotic resistance regions on the novel plasmids pTET3 or pCRY4, the resistant test strain Corynebacterium glutamicum LP-6 and the sensitive control strain Corynebacterium glutamicum ATCC13032 were initially cultured in the presence and absence of various antibiotics and antibiotic concentrations in accordance with the experimental method of the National Committee of Clinical Laboratory Standards (National Committee of Clinical Laboratory Standards, Methods for dilution antimicrobial susceptibility tests for bacteria that grow aerobically; Approved Standard, M7-A4 (1997)). The antibiotics required for this test, inter alia the antibiotics tetracycline, spectinomycin, streptomycin and sulfamethoxazole, were obtained from Sigma-Aldrich Chemie GmbH (Deisenhofen, Germany) and used in the concentrations stated in “Approved Standard M7-A4”. The nutrient medium required for this test, “MÖLLER-HINTON bouillon” was obtained from Merck KGaA (Darmstadt, Germany) and used in accordance with the manufacturer's instructions. Using the method of “Approved Standard M7-A4”, it is possible to determine inhibition concentrations (Table 1) and to identify the resistance of the bacterial strain Corynebacterium glutamicum LP-6 to the antibiotics tetracycline, spectinomycin, streptomycin and sulfamethoxazole. Plasmid DNA isolated from Corynebacterium glutamicum LP-6 using an alkaline lysis method (“NucleoBond Nucleic Acid Purification Kits and Cartridges User Manual (PT3167-1)”, Clonetech Laboratories GmbH, Heidelberg, Germany, 1997) was then transferred with electrical assistance into Corynebacterium glutamicum ATCC13032. Selection was performed directly for the presence of the identified tetracycline resistance in the primary selection on LB agar containing 5 μg/ml of tetracycline. […] The transformed strain was named Corynebacterium glutamicum ATCC13032 [pTET3].

[2] = system: Corynebacterium glutamicum ATCC13032; details: strain ATCC13032 (sensitive control), MÜLLER-HINTON bouillon
Source text: as §1, §2

[3] = system: Corynebacterium glutamicum ATCC13032 [pTET3]; details: strain ATCC13032 [pTET3]
Source text: In order to identify antibiotic resistance genes on new plasmids, the strain to be investigated, in the present case Corynebacterium glutamicum LP-6, and a sensitive control strain, in the present case Corynebacterium glutamicum ATCC13032, are initially tested for resistance or sensitivity to various antibiotics and concentrations of antibiotics. The National Committee of Clinical Laboratory Standards (NCCLS) experimental procedure is preferably used for this purpose (“Methods for dilution antimicrobial susceptibility tests for bacteria that grow aerobically”, fourth edition; Approved Standard, M7-A4, NCCLS 17(2), (1997)). Using the method of “Approved Standard M7-A4”, it is possible to determine inhibition concentrations and thus to ascertain the resistance of the investigated strain of bacteria.
The plasmid to be investigated, in the present case pTET3, is then isolated from strain LP-6 as described above and used to transform a suitable control or indicator strain, in the present case strain ATCC13032. Methods for transforming coryneform bacteria are described, for example, in Thierbach et al. ([…] 29, 356-362 (1988)), in Liebl et al. (FEMS Microbiology Letters 65, 299-304 (1989)) or in Dunican et al. (Bio/Technology 7, 1067-1070 (1989)). Selection is performed on conventional, complex nutrient media, such as for example brain-heart bouillon or Luria-Bertani medium, which are supplemented with the appropriate antibiotics. The antibiotic and the concentration thereof for this selection process is determined on the basis of the above-mentioned “Approved Standard, M7-A4”. In this manner, strain ATCC13032[pTET3], is obtained by selection for tetracycline resistance. The resistance/sensitivity of strain ATCC13032[pTET3) and of the control strain ATCC13032 is then investigated using the above-mentioned method, yielding the result that strain ATCC13032[pTET3] is resistant to the antibiotics tetracycline, streptomycin, spectinomycin and sulfamethoxazole.
In order to identify antibiotic resistance regions on the novel plasmids pTET3 or pCRY4, the resistant test strain Corynebacterium glutamicum LP-6 and the sensitive control strain Corynebacterium glutamicum ATCC13032 were initially cultured in the presence and absence of various antibiotics and antibiotic concentrations in accordance with the experimental method of the National Committee of Clinical Laboratory Standards (National Committee of Clinical Laboratory Standards, Methods for dilution antimicrobial susceptibility tests for bacteria that grow aerobically; Approved Standard, M7-A4 (1997)). […]

| SMILES | Minimum inhibition concentration [1] | Minimum inhibition concentration [2] | Minimum inhibition concentration [3] |
| --- | --- | --- | --- |
| CN[C@@H]1[C@H](O)[C@H](NC)[C@H]2O[C@@]3(O)C(=O)C[C@@H](C)O[C@H]3O[C@@H]2[C@H]1O [Spectinomycin] | >2000 μg of antibiotic per ml | ≦50 μg of antibiotic per ml | >2000 μg of antibiotic per ml |
| [H]/N=C(/N)N[C@H]1[C@H](O)[C@@H](O)[C@H](O[C@@H]2O[C@@H](C)[C@](O)(C=O)[C@H]2O[C@@H]2O[C@@H](CO)[C@H](O)[C@@H](O)[C@@H]2NC)[C@@H](N/C(N)=N\[H])[C@@H]1O [Streptotmycin] | ≦100 μg of antibiotic per ml | ≦0.5 μg of antibiotic per ml | ≦100 μg of antibiotic per ml |
| Cc1cc(NS(=O)(=O)c2ccc(N)cc2)no1 [Sulfamethoxazole] | ≦300 μg of antibiotic per ml | ≦150 μg of antibiotic per ml | ≦300 μg of antibiotic per ml |
| CN(C)[C@@H]1C(O)=C(C(N)=O)C(=O)[C@@]2(O)C(O)=C3C(=O)c4c(O)cccc4[C@@](C)(O)[C@H]3C[C@@H]12 [Tetracycline] | ≦12 μg of antibiotic per ml | ≦0.75 μg of antibiotic per ml | ≦12 μg of antibiotic per ml |
